Data as given in patent publication US7803940B2, “Heteromonocyclic compound or a salt thereof having strong antihypertensive action, insulin sensitizing activity and the like production thereof and use thereof for prophylaxis or treatment of cardiovascular diseases, metabolic diseases and/or central nervous system diseases” (Takeda Pharmaceutical Company Limited, priority 2006, dated 2010).
Where a name gives a salt, the structure may show the parent alone. Read-outs that look alike come from different tables or passages of the source.

How the values were obtained:
PPARγ = molecular target: T1, PPARγ (Homo sapiens, UniProt P37231); assay: Evaluation of PPARγ activating action (luciferase reporter, PPARγ:RXRα:4ERPP/CHO-K1 cells); assay type: cell-based; settings: for activation at 1 µM: CHO-K1, 24 h, read-out: PPARγ activating action (activation % (10^−6 M))
T1 construct: expressed in transfected cells; host or cells: CHO-K1
T1 sequence (P37231 1-477 isoform P37231-2): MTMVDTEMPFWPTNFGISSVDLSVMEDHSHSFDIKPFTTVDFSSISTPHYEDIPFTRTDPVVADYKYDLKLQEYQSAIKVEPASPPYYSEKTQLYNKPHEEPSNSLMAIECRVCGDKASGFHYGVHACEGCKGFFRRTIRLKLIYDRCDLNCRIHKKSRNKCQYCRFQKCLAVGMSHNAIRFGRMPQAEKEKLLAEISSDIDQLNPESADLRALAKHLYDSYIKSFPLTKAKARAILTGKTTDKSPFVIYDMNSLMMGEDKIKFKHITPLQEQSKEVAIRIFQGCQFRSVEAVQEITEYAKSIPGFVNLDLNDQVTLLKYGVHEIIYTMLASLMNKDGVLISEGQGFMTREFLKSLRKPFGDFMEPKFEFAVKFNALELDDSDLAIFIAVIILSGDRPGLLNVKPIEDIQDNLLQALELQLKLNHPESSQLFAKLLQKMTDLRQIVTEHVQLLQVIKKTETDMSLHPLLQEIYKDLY
T1 sequence (P19793 1-462 partner): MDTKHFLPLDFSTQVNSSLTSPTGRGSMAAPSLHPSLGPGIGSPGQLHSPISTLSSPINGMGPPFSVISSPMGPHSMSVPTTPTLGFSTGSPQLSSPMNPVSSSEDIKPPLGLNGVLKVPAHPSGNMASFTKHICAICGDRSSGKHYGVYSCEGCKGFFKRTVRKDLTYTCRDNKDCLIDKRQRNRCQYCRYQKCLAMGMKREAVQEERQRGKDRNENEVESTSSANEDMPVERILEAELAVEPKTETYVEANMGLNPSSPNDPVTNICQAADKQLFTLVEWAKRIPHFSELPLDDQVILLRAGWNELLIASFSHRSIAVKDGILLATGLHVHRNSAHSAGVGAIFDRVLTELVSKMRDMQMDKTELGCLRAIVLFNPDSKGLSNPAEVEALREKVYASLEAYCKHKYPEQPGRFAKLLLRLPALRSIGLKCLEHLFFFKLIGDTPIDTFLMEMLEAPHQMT
Procedure: PPARγ:RXRα:4ERPP/CHO-K1 cells obtained in the following Reference Example 5 were cultured in F12 medium [manufactured by INVITROGEN, USA] containing 10% fetal bovine serum [manufactured by MOREGATE, Australia], seeded in a 96-well half area white plate [manufactured by Corning Coster Corporation, USA] at the density of 5×10^3 cells/well and cultured in a CO2 gas incubator at 37° C. overnight.
Then the medium was removed from the 96-well half area white plate, 45 μl of Ham's F12 medium containing 0.1% fatty acid-free bovine serum albumin (BSA) and 5 μl of test compound were added, and the cells were cultured in a CO2 gas incubator at 37° C. for 1 day. The medium was removed and 20 μl of PicaGene 7.5 [manufactured by TOYO INK MFG. CO., LTD., Japan] diluted 2-fold with HBSS (HANKS' BALANCED SALT SOLUTION) [manufactured by BIO WHITTAKER, USA] was added. After stirring, the luciferase activity was determined using 1420 ARVO Multilabel Counter [manufactured by PerkinElmer, USA].
The percent (%) was calculated from the luciferase activity of each test compound when the luciferase activity of the control compound (compound X: 5-[3-(4-{[2-(2-furyl)-5-methyl-1,3-oxazol-4-yl]methoxy}-3-methoxyphenyl)propyl]-1,3-oxazolidine-2,4-dione) (1 μM) was 100% and that of the test compound non-administration group was 0%.
A CHO-K1 cell cultured in a 150 cm^2 cell culture flask [manufactured by Corning Costar Corporation, USA] containing Ham's F12 medium [manufactured by INVITROGEN, USA] supplemented with 10% fetal bovine serum [manufactured by INVITROGEN, USA] was scraped by treating with 0.5 g/L trypsin-0.2 g/L EDTA (ethylenediaminetetraacetic acid) [manufactured by Life Technologies, Inc., USA], and then the cell was washed with PBS (Phosphate-buffered saline) [manufactured by INVITROGEN, USA], centrifuged (1000 rpm, 5 minutes) and suspended in PBS. Subsequently, DNA was introduced into the cell under the conditions shown below using GENE PULSER [manufactured by Bio-Rad Laboratories, USA].
Namely, to a cuvette having a 0.4 cm gap were added 8×10^6 cells and 10 μg of plasmid pVgRXR2-hPPARγ obtained in Reference Example 4 and 10 μg of reporter plasmid pGL3-4ERPP-TK neo obtained in Reference Example 3, which was subjected to electroporation at the voltage of 0.25 kV under the capacitance of 960 μF. Subsequently, the cell was transferred into a F12 medium containing 10% fetal bovine serum and cultured for 24 hours, and then the cell was scraped again and centrifuged, and then suspended in Ham's F12 medium containing 10% fetal bovine serum supplemented with 500 μg/ml of Geneticin [manufactured by INVITROGEN, USA] and 250 μg/ml of Zeocin [manufactured by INVITROGEN, USA]. The obtained suspension was diluted to the density of 1 cells/ml and inoculated in a 96-well plate [manufactured by Corning Costar Corporation, USA], which was cultured in a CO2 gas incubator at 37° C., whereby obtaining a Geneticin- and Zeocin-resistant transformant.
Subsequently, after the transformant cell line thus obtained was cultured in a 24-well plate [manufactured by Corning Costar Corporation, USA], a cell line in which the luciferase was expressed and induced, i.e., PPARγ:RXRα:4ERPP/CHO-K1 cell was selected by the addition of 10 μM pioglitazone hydrochloride.

human AT1 receptor = molecular target: T2, human AT1 receptor (Homo sapiens, UniProt P30556); assay: Binding assay using human AT1 receptor-expressing CHO-K1 cell membrane fraction ([125I]-angiotensin II); settings: 22.5 pM [125I]-angiotensin II, 9 μg AT1 membrane, 1 hr room temperature; read-out: AT1 receptor binding inhibitory action (IC50 (nM))
T2 construct: expressed in transfected cells; host or cells: CHO-K1
T2 sequence (P30556 1-359): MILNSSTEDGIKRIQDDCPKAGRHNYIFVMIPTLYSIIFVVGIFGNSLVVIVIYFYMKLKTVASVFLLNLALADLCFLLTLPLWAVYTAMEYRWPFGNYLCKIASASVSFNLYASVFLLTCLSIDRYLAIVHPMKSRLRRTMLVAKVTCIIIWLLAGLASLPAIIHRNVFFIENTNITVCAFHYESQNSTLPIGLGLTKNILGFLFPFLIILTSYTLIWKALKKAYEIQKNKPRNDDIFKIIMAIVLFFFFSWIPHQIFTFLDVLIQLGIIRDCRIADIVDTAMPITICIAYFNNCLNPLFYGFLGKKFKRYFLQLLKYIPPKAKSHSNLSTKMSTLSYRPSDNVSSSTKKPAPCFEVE
Procedure: The membrane fraction for human AT1 receptor binding assay was prepared as follows. CHO-K1 cell capable of stable expression of human AT1 receptor was cultured, recovered, suspended in homogenize buffer (10 mM NaHCO3 (pH 7.4), 5 mM EDTA, 1×Complete EDTA free) [manufactured by Roche, Switzerland], and homogenized. The homogenate was centrifuged at low-speed (900×g, 10 min, 4° C.), and the supernatant was recovered and ultracentrifuged (90,000×g, 1 hr, 4° C.). The supernatant was discarded, and the pellets were resuspended in resuspension buffer (50 mM Tris (pH 7.4), 1 mM EDTA, 1×Complete EDTA free).
The binding assay was performed in the presence of 22.5 pM [^125I]-angiotensin II [manufactured by PerkinElmer, USA], 9 μg of AT1 membrane and test compound in 100 μL (total reaction volume) of reaction buffer (50 mM Tris (pH 7.4), 10 mM MgCl2 supplemented or not supplemented with 0.3 mg/mL fatty acid-free bovine serum albumin [manufactured by Wako Pure Chemical Industries, Ltd., Japan]). […] The filter was air-dried, and [^125I]-angiotensin II binding radioactivity was assayed with Top Count scintillation counter. Total binding was measured in the presence of 1% DMSO and nonspecific binding was measured in the presence of 1 μM CV-11974. […]

[1] = test compound 10^−6 M, luciferase activity of control compound X (1 μM) = 100%, non-administration group = 0%

For `CCCCc1nc(CC)n(Cc2ccccc2)c(=O)c1Cc1ccc(-c2ccccc2-c2noc(=O)[nH]2)cc1` [Example 105, 3-benzyl-6-butyl-2-ethyl-5-{[2′-(5-oxo-4,5-dihydro-1,2,4-oxadiazol-3-yl)biphenyl-4-yl]methyl}pyrimidin-4(3H)-one], the “PPARγ activating action (activation % (10^−6 M))” value (PPARγ; [1]) was 64.1%.

Molecule `CCCCc1nc(CC)n(CC(=O)C(C)(C)C)c(=O)c1Cc1ccc(-c2ccccc2-c2noc(O)n2)cc1` [Example 309, 6-butyl-3-(3,3-dimethyl-2-oxobutyl)-2-ethyl-5-{[2′-(5-oxo-4,5-dihydro-1,2,4-oxadiazol-3-yl)biphenyl-4-yl]methyl}pyrimidin-4(3H)-one potassium salt] has an IC50 (human AT1 receptor) of 1.6 nM and an activation at 1 µM (PPARγ) of 31.5%.

`CCCCc1nc(C2CC2)n(-c2ccccc2)c(=O)c1Cc1ccc(-c2ccccc2-c2noc([O-])n2)cc1.[K+]` [Example 310, 6-butyl-2-cyclopropyl-5-{[2′-(5-oxo-4,5-dihydro-1,2,4-oxadiazol-3-yl)biphenyl-4-yl]methyl}-3-phenylpyrimidin-4(3H)-one potassium salt] was tested, and the “PPARγ activating action (activation % (10^−6 M))” value (PPARγ; [1]) was 27.1%.

`CCCc1nc(CC)n(-c2ccc3c(c2)CCO3)c(=O)c1Cc1ccc(-c2ccccc2-c2noc([O-])n2)cc1.[K+]` [Example 311, 3-(2,3-dihydro-1-benzofuran-5-yl)-2-ethyl-5-{[2′-(5-oxo-4,5-dihydro-1,2,4-oxadiazol-3-yl)biphenyl-4-yl]methyl}-6-propylpyrimidin-4(3H)-one potassium salt] was tested, and the “PPARγ activating action (activation % (10^−6 M))” value (PPARγ; [1]) was 38.1%.

`CCCc1nc(CC)n(-c2ccc3c(c2)CC(C)O3)c(=O)c1Cc1ccc(-c2ccccc2-c2noc([O-])n2)cc1.[K+]` (centres unmarked) [Example 312, 2-ethyl-3-(2-methyl-2,3-dihydro-1-benzofuran-5-yl)-5-{[2′-(5-oxo-4,5-dihydro-1,2,4-oxadiazol-3-yl)biphenyl-4-yl]methyl}-6-propylpyrimidin-4(3H)-one potassium salt] was tested, and the “PPARγ activating action (activation % (10^−6 M))” value (PPARγ; [1]) was 50.3%.

In the case of `CCCc1nc(CC)n(-c2ccc(OC)cc2)c(=O)c1Cc1ccc(-c2ccccc2-c2noc([O-])n2)cc1.[K+]` [Example 313, 2-ethyl-3-(4-methoxyphenyl)-5-{[2′-(5-oxo-4,5-dihydro-1,2,4-oxadiazol-3-yl)biphenyl-4-yl]methyl}-6-propylpyrimidin-4(3H)-one potassium salt], the “PPARγ activating action (activation % (10^−6 M))” value (PPARγ; [1]) is reported as 31.0%.

Molecule `CCCc1nc(C(F)F)n(-c2ccc(OC)cc2)c(=O)c1Cc1ccc(-c2ccccc2-c2noc(=O)[nH]2)cc1` [Example 410, 2-(difluoromethyl)-3-(4-methoxyphenyl)-5-{[2′-(5-oxo-4,5-dihydro-1,2,4-oxadiazol-3-yl)biphenyl-4-yl]methyl}-6-propylpyrimidin-4(3H)-one] has an activation at 1 µM (PPARγ; [1]) of 19.5%.

In the case of `CCCc1nc(CC)c(C(O)C(C)C)c(=O)n1Cc1ccc(-c2ccccc2-c2noc(O)n2)cc1` (centres unmarked) [Example 473, 6-ethyl-5-(1-hydroxy-2-methylpropyl)-3-{[2′-(5-oxo-4,5-dihydro-1,2,4-oxadiazol-3-yl)biphenyl-4-yl]methyl}-2-propylpyrimidin-4(3H)-one potassium salt], the “PPARγ activating action (activation % (10^−6 M))” value (PPARγ; [1]) is reported as 15.7%.

`CCCc1nc(C)c(Oc2ccc(OC)cc2)c(=O)n1Cc1ccc(-c2ccccc2-c2noc(O)n2)cc1` [Example 476, 5-(4-methoxyphenoxy)-6-methyl-3-{[2′-(5-oxo-4,5-dihydro-1,2,4-oxadiazol-3-yl)biphenyl-4-yl]methyl}-2-propylpyrimidin-4(3H)-one potassium salt] was tested, and the “PPARγ activating action (activation % (10^−6 M))” value (PPARγ; [1]) was 18.5%.

In the case of `CCCc1nc(CC)c(Oc2cccc(OC)c2)c(=O)n1Cc1ccc(-c2ccccc2-c2noc(O)n2)cc1` [Example 488, 6-ethyl-5-(3-methoxyphenoxy)-3-{[2′-(5-oxo-4,5-dihydro-1,2,4-oxadiazol-3-yl)biphenyl-4-yl]methyl}-2-propylpyrimidin-4(3H)-one potassium salt], the “PPARγ activating action (activation % (10^−6 M))” value (PPARγ; [1]) is reported as 16.7%.
